MIC data for four molecules are collected here from US9409905B2, “Antibacterial compounds and methods for use” (PTC THERAPEUTICS, INC., priority 2011, dated 2016).

The test system of experiment [1] is Pseudomonas aeruginosa (P. aeruginosa) 27853. Kind of experiment: Antibacterial activity, MIC (Table 5). The note with it: P. aeruginosa 27853, read-out: MIC, 27853. It counts as cell-based. The method in brief: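 Microbroth dilution; MIC (μg/mL) = lowest concentration with no macroscopically visible growth.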
The subject of experiment [2] is Moraxella catarrhalis (M. catarrhalis) 25238. Kind of experiment: Antibacterial activity, MIC (Table 7). It is filed as cell-based. The method in brief: (§1)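 Values are minimum inhibitory concentrations in μg/mL, determined by microbroth dilution as the lowest concentration with no macroscopically visible growth.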
Experiment [3] concerns Acinetobacter baumannii (A. baumannii) BAA747. Kind of experiment: Antibacterial activity, MIC (Table 4). Particulars: A. baumannii BAA747, read-out: MIC, BAA747. It counts as cell-based. Put shortly:
(§2)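 MIC in μg/mL by microbroth dilution, scored as the lowest level that suppresses visible growth.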

For experiment [4], the system named is Klebsiella pneumoniae (K. pneumoniae) 35657. Kind of experiment: Antibacterial activity, MIC (Table 4). The note with it: K. pneumoniae 35657, read-out: MIC, 35657. It counts as cell-based. Put shortly: as §2
The subject of a further experiment is E. coli LZ3111. Kind of experiment: Antibacterial activity, MIC, quinolone resistant strain (Table 2). It counts as cell-based. Particulars: Escherichia coli, LZ3111, read-out: MIC LZ3111. The method in brief:
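Broth microdilution. Read-out: MIC in μg/mL, taken as lowest concentration with no macroscopically visible growth.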

Experiment [5] deals with Neisseria meningitidis (N. meningitidis) 13090. Kind of experiment: Antibacterial activity, MIC (Table 8). It is filed as cell-based. Put shortly: as §1
In experiment [6] the test system is Staphylococcus aureus (S. aureus) 29213. Kind of experiment: Antibacterial activity, microbroth dilution MIC (Table 1). It counts as cell-based. Particulars: microbroth dilution, Gram-positive S. aureus 29213, read-out: MIC, 29213. The method in brief:
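Each strain is exposed to test compound in a microbroth dilution series; visible growth is scored macroscopically, and the lowest growth-free concentration is recorded as MIC in μg/mL.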

Experiment [7] concerns Escherichia coli (E. coli) BAS849. Described as above. Particulars: microbroth dilution, super sensitive Gram-negative E. coli BAS849, read-out: MIC, BAS849. It counts as cell-based. Put shortly: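 Read-out: visual absence of growth. The lowest concentration meeting this gives the MIC, expressed in μg/mL, with microbroth dilution as the method.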
Another experiment has as its system E. coli ELZ4251. The experiment is described as follows: Antibacterial activity, MIC, multi-drug resistant clinical isolate (Table 3). It counts as cell-based. The note with it: Escherichia coli. Put shortly:
(§3)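 MIC (μg/mL) read as lowest concentration with no macroscopically visible growth, determined by microbroth dilution.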

Another experiment relates to E. coli ELZ4000. The experiment is described as above. It counts as cell-based. The note with it: Escherichia coli, ELZ4000, read-out: MIC ELZ4000. Put shortly: as §3
The subject of the next experiment is E. coli 25922. The experiment is described as follows: Antibacterial activity, microbroth dilution MIC (Table 1). It counts as cell-based, Escherichia coli. The note with it: Escherichia coli; microbroth dilution; control Gram-negative E. coli 25922 strain; read-out: MIC, 25922. Put shortly: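 Microbroth dilution was used. MIC, in μg/mL, is the lowest drug concentration preventing macroscopically visible growth under the test conditions.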
On the technique in general: In broth dilution the organism is exposed to a series of concentrations in liquid medium.

For a further experiment, the system named is A. baumannii MXX2240. Kind of experiment: Antibacterial activity, MIC, resistant strain (Table 4). It is filed as cell-based. Particulars: Acinetobacter baumannii, MXX2240; resistant A. baumannii MMX2240, multi-drug resistant clinical isolate; read-out: MIC, MMX2240. The method in brief:
as §2

Another experiment deals with K. pneumoniae MXX1232. The experiment is described as above. The note with it: Klebsiella pneumoniae, MXX1232; resistant K. pneumoniae MMX1232, multi-drug resistant clinical isolate; read-out: MIC, MMX1232. It counts as cell-based. Put shortly:
as §2

In experiment [8] the test system is Haemophilus influenzae (H. influenzae) 49247. Kind of experiment: Antibacterial activity, MIC (Table 6). It counts as cell-based. The method in brief:
as §1

≈ marks a conversion by molar mass, not a printed value. Where only a bound is given, the exact number is not on record here.

For `CCc1c(-c2ccc3c(c2)cc(CN2C[C@H]4CCC[C@@H](N(C)C)[C@H]4C2)n3C)[nH]c(=O)c(C(=O)O)c1O` [Cpd 279, 6-(2-(((3aR,4R,7aS)-4-(dimethylamino)-1H-isoindol-2(3H,3aH,4H,5H,6H,7H,7aH)-yl)methyl)-1-methyl-1H-indol-5-yl)-5-ethyl-4-hydroxy-2-oxo-1,2-dihydropyridine-3-carboxylic acid], the MIC in experiment [1] was 12.5 to 150 µg/mL (≈ 25.4 to 304 µM); in [2], 1 to 3.5 µg/mL (≈ 2.03 to 7.1 µM); in experiment [3], 1 to 3.5 µg/mL (≈ 2.03 to 7.1 µM); in [4] it was 1 to 3.5 µg/mL (≈ 2.03 to 7.1 µM); with E. coli LZ3111, 1 to 3.5 µg/mL (≈ 2.03 to 7.1 µM); in experiment [5], less than 1 µg/mL. In addition, the MIC in experiment [6] was 3.5 to 12.5 µg/mL (≈ 7.1 to 25.4 µM); in [7], less than 1 µg/mL; against E. coli ELZ4251, 12.5 to 150 µg/mL (≈ 25.4 to 304 µM); in the experiment with E. coli ELZ4000, 12.5 to 150 µg/mL (≈ 25.4 to 304 µM); with E. coli 25922, 1 to 3.5 µg/mL (≈ 2.03 to 7.1 µM); in the experiment on A. baumannii MXX2240, 12.5 to 150 µg/mL (≈ 25.4 to 304 µM). The MIC fell in the range of 12.5 to 150 µg/mL (≈ 25.4 to 304 µM) with K. pneumoniae MXX1232 and 1 to 3.5 µg/mL (≈ 2.03 to 7.1 µM) in experiment [8].

Take `CCc1c(-c2ccc3c(c2)cc(CN2C[C@H]4CCC[C@@H](NC)[C@H]4C2)n3C)[nH]c(=O)c(C(=O)O)c1O` [Cpd 282, 5-ethyl-4-hydroxy-6-(1-methyl-2-(((3aR,4R,7aS)-4-(methylamino)-1H-isoindol-2(3H,3aH,4H,5H,6H,7H,7aH)-yl)methyl)-1H-indol-5-yl)-2-oxo-1,2-dihydropyridine-3-carboxylic acid]: the MIC lay within 12.5 to 150 µg/mL (≈ 26.1 to 313 µM) in experiment [1]; 3.5 to 12.5 µg/mL (≈ 7.31 to 26.1 µM) in experiment [2]; 12.5 to 150 µg/mL (≈ 26.1 to 313 µM) in experiment [3]; 1 to 3.5 µg/mL (≈ 2.09 to 7.31 µM) in experiment [4]; 1 to 3.5 µg/mL (≈ 2.09 to 7.31 µM) in the experiment with E. coli LZ3111; 1 to 3.5 µg/mL (≈ 2.09 to 7.31 µM) in [5]. Besides, the MIC in [6] is 12.5 to 150 µg/mL (≈ 26.1 to 313 µM); in [7], less than 1 µg/mL; in the experiment with E. coli ELZ4251, 3.5 to 12.5 µg/mL (≈ 7.31 to 26.1 µM); in the experiment on E. coli ELZ4000 it was 12.5 to 150 µg/mL (≈ 26.1 to 313 µM); in the experiment on E. coli 25922 it was less than 1 µg/mL; in the experiment with A. baumannii MXX2240, 12.5 to 150 µg/mL (≈ 26.1 to 313 µM). Moreover, the MIC in the experiment with K. pneumoniae MXX1232 lay in the range of 12.5 to 150 µg/mL (≈ 26.1 to 313 µM); in experiment [8], 1 to 3.5 µg/mL (≈ 2.09 to 7.31 µM).

Turning to `CCc1c(-c2ccc3c(c2)cc(CN2C[C@H]4C[C@@H](N(C)C)C[C@H]4C2)n3C)[nH]c(=O)c(C(=O)O)c1O` [Cpd 285, 6-(2-(((3aR,5r,6aS)-5-(dimethylamino)hexahydrocyclopenta[c]pyrrol-2(1H)-yl)methyl)-1-methyl-1H-indol-5-yl)-5-ethyl-4-hydroxy-2-oxo-1,2-dihydropyridine-3-carboxylic acid], the MIC is 12.5 to 150 µg/mL (≈ 26.1 to 313 µM) in [1]; 1 to 3.5 µg/mL (≈ 2.09 to 7.31 µM) in experiment [2]; 3.5 to 12.5 µg/mL (≈ 7.31 to 26.1 µM) in experiment [3]; 1 to 3.5 µg/mL (≈ 2.09 to 7.31 µM) in [4]; 1 to 3.5 µg/mL (≈ 2.09 to 7.31 µM) in the experiment on E. coli LZ3111; less than 1 µg/mL in [5]. In addition, the MIC in experiment [6] was 12.5 to 150 µg/mL (≈ 26.1 to 313 µM); in experiment [7] it was less than 1 µg/mL; against E. coli ELZ4251 it was 3.5 to 12.5 µg/mL (≈ 7.31 to 26.1 µM); with E. coli ELZ4000, 12.5 to 150 µg/mL (≈ 26.1 to 313 µM); in the experiment on E. coli 25922 it was 1 to 3.5 µg/mL (≈ 2.09 to 7.31 µM); in the experiment with A. baumannii MXX2240, 12.5 to 150 µg/mL (≈ 26.1 to 313 µM). For the same molecule, the MIC in the experiment with K. pneumoniae MXX1232 fell in the range of 12.5 to 150 µg/mL (≈ 26.1 to 313 µM); in experiment [8] it was 1 to 3.5 µg/mL (≈ 2.09 to 7.31 µM).

On to `CCc1c(-c2ccc3c(c2)cc(CN)n3C)[nH]c(=O)c(C(=O)O)c1O` [Cpd 290, 6-(2-(aminomethyl)-1-methyl-1H-indol-5-yl)-5-ethyl-4-hydroxy-2-oxo-1,2-dihydropyridine-3-carboxylic acid], for which the MIC was 1 to 3.5 µg/mL (≈ 2.93 to 10.3 µM) in experiment [1]; 1 to 3.5 µg/mL (≈ 2.93 to 10.3 µM) in [2]; 1 to 3.5 µg/mL (≈ 2.93 to 10.3 µM) in experiment [3]; 3.5 to 12.5 µg/mL (≈ 10.3 to 36.6 µM) in experiment [4]; 1 to 3.5 µg/mL (≈ 2.93 to 10.3 µM) in the experiment on E. coli LZ3111; less than 1 µg/mL in experiment [5]. The MIC in experiment [6] is 3.5 to 12.5 µg/mL (≈ 10.3 to 36.6 µM); in experiment [7] it was less than 1 µg/mL; in the experiment with E. coli ELZ4251, 3.5 to 12.5 µg/mL (≈ 10.3 to 36.6 µM); in the experiment with E. coli ELZ4000, 3.5 to 12.5 µg/mL (≈ 10.3 to 36.6 µM); in the experiment with E. coli 25922 it was less than 1 µg/mL; in the experiment with A. baumannii MXX2240 it was 12.5 to 150 µg/mL (≈ 36.6 to 439 µM). The MIC in the experiment with K. pneumoniae MXX1232 is 12.5 to 150 µg/mL (≈ 36.6 to 439 µM); in experiment [8], 1 to 3.5 µg/mL (≈ 2.93 to 10.3 µM).
